Test results from article PMC7157554, “Anti-Trypanosomal Proteasome Inhibitors Cure Hemolymphatic and Meningoencephalic Murine Infection Models of African Trypanosomiasis” (Tropical Medicine and Infectious Disease, 2020).
In brackets after ≈: the same amount, converted by molar mass. Like-named read-outs stand apart in the source and are kept apart here.

Tests used:
[1] = PAMPA (parallel artificial membrane permeability assay); format: in vitro ADME; conditions: FA: fraction absorbed
Method: (§1) Test compounds’ solubility was determined in a high-throughput thermodynamic solubility assay, as described previously. The PAMPA (parallel artificial membrane) assays were carried out, using a standard protocol. Plasma protein binding was determined by using mouse blood, whilst brain tissue binding was determined by using rat brain tissue homogenate. Intrinsic metabolic clearances were determined in mouse liver microsomes, using the compound depletion approach and LC–MS/MS quantification.

[2] = system: MDR1-MDCK (Multi Drug Resistant 1 overexpressing Madin–Darby canine kidney cells); assay: in vitro; conditions: dog
Method: (§2) In order to evaluate potential of brain permeability, all three compounds were tested in an MDR1-MDCK permeability assay. […] Those that have a high efflux ratio are generally substrates for Pgp transporters, thereby having a higher propensity to be excluded from the brain. […] To assess directly the TP compounds’ ability to penetrate brain, mice were dosed with compound, and plasma and brains were collected after 5 and 60 min following intravenous dosing.

[3] = system: MDR1 (Pgp); assay: in vitro; conditions: dog, MDCK-MDR1
Method: as §2

[4] = Brain-to-plasma drug concentration ratio in mice; format: in vivo; conditions: mouse, read-out: B/P Ratio; for Kp at 5 min: 5 min after 1 mg/kg i.v.; for Kp at 60 min: 60 min after 1 mg/kg i.v.
Method: For measurement of the brain-to-plasma drug concentration ratio, mice were dosed intravenously with 1 mg/kg compounds. Mice were euthanized at 5 and 60 min post-dosing, and blood and brains were collected. The compound concentrations in plasma and brains were measured, following the protocol described above.

[5] = system: T. b. brucei (GVR35-VSL2); assay: Meningoencephalic mouse model (stage 2 HAT efficacy model, GVR35) with bioluminescence imaging; format: in vivo; conditions: for % Cured / Mean Day of Relapse / Mice Cured/Total / Day of Relapse, mice which did not relapse (value in parenthesis): seven days; for Dose that completely cured stage 2 infection: HAT mouse model
Method: The GVR35 mouse CNS model mimics the second (meningoencephalic) stage of African trypanosomiasis. Female CD1 mice (~8 weeks old, from Charles River) were injected intraperitoneally (i.p.) with 3 × 10^4 T. b. brucei (GVR35-VSL2) bloodstream-form parasites. As controls, a group of three untreated mice and another group of three mice treated with diminazene aceturate (DA) were included. […] Mice treated with DA usually relapse after 42 days post-infection. […]
Blood parasitemia was quantified weekly from day 21/22, by microscopy of blood from the tail vein. Mice were imaged for bioluminescence using an in vivo imaging system (IVIS) prior to treatment on day 21/22, and weekly after treatment, as described previously. Briefly, mice, in groups of three, were injected i.p. with 150 mg of D-luciferin (Promega) per kilogram body weight in PBS and imaged after 10 min, using an IVIS Spectrum (PerkinElmer, Waltham, Massachusetts MA, USA). Living Image Software (PerkinElmer) was used for acquisition and analysis of bioluminescence imaging data. Bioluminescence in the same rectangular region of interest (ROI) on whole-body mouse images was quantified and is shown in total flux (photons per second). Images were cropped to the ROIs and composites of images from representative mice are shown. Uncured mice were euthanized within 1 or 2 days of parasite detection in the blood. Cured mice were euthanized between day 92 and 101 post-infection. All the results from the individual experiments were reported as number of mice cured over total number of mice treated. A Kaplan–Meier plot was used for representing the number of mice cured at different treatment doses.

[6] = Intrinsic metabolic clearance in mouse liver microsomes; format: in vitro ADME
Method: as §1

[7] = LogD (measured octanol water co-efficient); format: physicochemical
[8] = High-throughput thermodynamic solubility assay; format: physicochemical; conditions: for solubility: pH 6.8, thermodynamic from solid
Method: as §1

[9] = Intravenous pharmacokinetics in mouse; format: in vivo; conditions: for T1/2 / Vd: i.v. 5 mg/kg; for T1/2: elimination half-life; for half-life / Vd / clearance: male, BALB/c, iv; for half-life / clearance: 5 mg/kg; for half-life: i.v., read-out: Elimination half-life (converted); for Vd: read-out: Vss
Method: Determination of intravenous (i.v.) and per oral (p.o.) pharmacokinetics (PK) were carried out by using male BALB/c mice. […] To avoid any granular material, the solution was filtered, using a 0.45 μm syringe filter. The filtered solutions were dosed intravenously to mice via the lateral tail vein, at 5 mg/kg, with a dosing volume of 2 mL/kg. For all the p.o. PK studies, compounds were resuspended in 0.5% v/v methyl cellulose in 0.5 % v/v tween 80 solution. For 20 mg/kg dosing, 200 µL of compounds was administered orally to mice. […] Blood samples were collected into heparin microtainers and centrifuged, and then plasma was separated and frozen until analysis. Plasma samples (20 μL) were extracted with acetonitrile:methanol (3:1) containing internal standard. […] The supernatant was transferred to a 96-well analysis plate and analyzed, using optimized LC/MS/MS conditions. For every experiment, 3 mice were used per compound, per dose. The plasma concentration-time profile was obtained by plotting the mean value from the three animals at each time point. Various PK parameters, such as Cmax (maximum concentration), area under curve (AUC) and oral bioavailability (F) for compounds, were calculated by non-compartmental regression analysis, using an in-house fitting program developed at GNF [8]. All the in-life studies were carried out under protocols approved by the Animal Care and Use Committee (IACUC), following animal ethics guidelines of GNF.

[10] = system: T. b. brucei STIB795; assay: Hemolymphatic mouse model (stage 1 HAT efficacy model); format: in vivo; conditions: for % Cured / Mean day of Relapse / Mice Cured/Total: four days; for Minimum efficacious dose: QD dosing for four days, stage 1 model
Method: The T. b. brucei STIB795 acute mouse model mimics the hemolymphatic stage of the sleeping sickness disease. We used six female NMRI mice per experimental group, divided into two cages. Heparinized blood from a donor mouse with approximately 5 × 10^6 per mL parasitemia was suspended in phosphate saline glucose (PSG), to obtain a parasite suspension of […]. Each mouse was injected with 0.25 mL of parasite suspension (10^4 bloodstream forms of T. b. brucei STIB795) intraperitoneally. All compounds were formulated in 0.5% methylcellulose and 0.5% Tween80. Three days post-infection, test compounds were administered orally on four consecutive days, in a volume of 100 µL/10 g. Three mice served as infected–untreated controls. […] Until 31 days post-infection, parasitemia was monitored microscopically by tail-blood examination twice a week. Mice were considered cured when there was no parasitemia detected in the tail blood. All the results from the individual experiments were reported as number of mice cured over total number of mice treated. A Kaplan–Meier plot was used for representing the number of mice cured at different treatment doses.

[11] = liver microsomes, read-out: Mouse liver microsomal clearance

## Cc1nc(C)c(C(=O)Nc2ccc(F)c(-c3nc4ncc(-c5ccccc5)cn4n3)c2)o1 [GNF3849]
[1]
  PAMPA Permeability (% FA): 96 % FA
[2]
  MDR1-MDCK A–B: 4.5
  MDR1-MDCK B–A: 14.1
[3]
  efflux ratio: 3.2
[4]; brain and plasma, intravenous
  Kp at 5 min: 0.22
  Kp at 60 min: 0.28
[5]; 7.5 mg/kg QD oral
  % Cured: 0%
  Mean Day of Relapse: 37 days post infection
  Mice Cured/Total: 0/6
[5]; 75 mg/kg QD oral
  % Cured: 50%
  Day of Relapse, mice which did not relapse (value in parenthesis): > 92 days post infection
  Mice Cured/Total: 3/6
[5]; 75 mg/kg QD oral, mice which relapsed
  Mean Day of Relapse: 60 days post infection
[5]; 7.5 and 75 mg/kg, once daily
  Cure outcome: failed to achieve complete cure
[6]; [11]
  microsomal CLint: 15.2 µL/min/mg
[7]
  logD: 3.31
[8]; pH 6.8
  Solubility pH 6.8: poor
[8]
  solubility: < 2 µg/mL
[9]
  T1/2: 6.5 H
[9]; plasma
  half-life: 6.5 h
  Vd: 1.2 L/kg
[10]; 7.5 mg/kg QD oral
  % Cured: 100%
  Mean day of Relapse: >31 days post infection
  Mice Cured/Total: 6/6
[10]; 25 mg/kg QD oral
  % Cured: 100%
  Mean day of Relapse: >31 days post infection
  Mice Cured/Total: 6/6
[10]; 75 mg/kg QD oral
  % Cured: 100%
  Mean day of Relapse: >31 days post infection
  Mice Cured/Total: 6/6
[10]; all doses: 7.5, 25 and 75 mg/kg, once daily, for four days
  Cure outcome: complete cure

## Cc1nc(C)c(C(=O)Nc2ccc(F)c(-c3nc4ncc(-c5ccccn5)cn4n3)c2)o1 [GNF6702]
[1]
  PAMPA Permeability (% FA): 92 % FA
[2]
  MDR1-MDCK A–B: 8.3
  MDR1-MDCK B–A: 22.1
[4]; in vivo
  Kp at 5 min: 0.13
  Kp at 60 min: 0.17
[5]; 3 mg/kg QD oral
  % Cured: 0%
  Mean Day of Relapse: 47 days post infection
[5]; 10 mg/kg QD oral
  % Cured: 66%
  Day of Relapse, mice which did not relapse (value in parenthesis): > 92 days post infection
[5]; 10 mg/kg QD oral, mice which relapsed
  Mean Day of Relapse: 50 days post infection
[5]; 30 mg/kg QD oral
  % Cured: 100%
  Mean Day of Relapse: >92 days post infection
[5]; 100 mg/kg QD oral
  % Cured: 100%
  Mean Day of Relapse: >92 days post infection
[5]; 30 and 100 mg/kg, once daily, oral
  Cure outcome: complete cure
[5]
  Dose that completely cured stage 2 infection: 30 mg/kg
[6]; microsomes
  microsomal CLint: 34.1 µL/min/mg
[7]
  logD: 2.32
[9]
  T1/2: 7.0 H
[9]; in vivo
  Vd: 1.2 L/kg
[9]; plasma
  clearance: 2.26 mL/min/kg
[10]; 0.1 mg/kg QD oral
  % Cured: 0%
  Mean day of Relapse: 6.83 days post infection
[10]; 0.3 mg/kg QD oral
  % Cured: 33.3%
  Mean day of Relapse: 19 days post infection
[10]; 1 mg/kg QD oral
  % Cured: 100%
  Mean day of Relapse: >31 days post infection
[10]; 3 mg/kg QD oral
  % Cured: 100%
  Mean day of Relapse: >31 days post infection
[10]; 10 mg/kg QD oral
  % Cured: 100%
  Mean day of Relapse: >31 days post infection
[10]
  Minimum efficacious dose: 1 mg/kg

## Cc1nc(C)c(C(=O)Nc2ccc(F)c(-c3nc4ncc(C(C)(C)C)cn4n3)c2)o1 [NITD689]
[1]
  PAMPA Permeability (% FA): 99.1 % FA
[2]
  MDR1-MDCK A–B: 32.6
  MDR1-MDCK B–A: 29.2
[3]
  efflux ratio: 0.9
[4]; brain and plasma, intravenous
  Kp at 5 min: 0.12
  Kp at 60 min: 0.12
[5]; 15 mg/kg BID oral
  % Cured: 0%
  Mean Day of Relapse: 42 days post infection
  Mice Cured/Total: 0/6
[5]; 15 mg/kg twice daily and 30 mg/kg once daily
  Cure outcome: failed to cure
[5]; 30 mg/kg BID oral
  % Cured: 100%
  Mean Day of Relapse: >94 days post infection
  Mice Cured/Total: 6/6
[5]; 30 mg/kg QD oral
  % Cured: 0%
  Mean Day of Relapse: 50 days post infection
  Mice Cured/Total: 0/6
[5]; 30 mg/kg twice daily and 60 mg/kg once daily
  Cure outcome: complete cure
[5]; 60 mg/kg QD oral
  % Cured: 100%
  Mean Day of Relapse: >94 days post infection
  Mice Cured/Total: 6/6
[5]
  Dose that completely cured stage 2 infection: 60 mg/kg
[6]; [11]
  microsomal CLint: 7.41 µL/min/mg
[7]
  logD: 3.05
[8]
  solubility: 71 µg/mL (≈ 174 µM)
[9]
  T1/2: 1.6 H
[9]; plasma
  clearance: 13.5 mL/min/kg
  half-life: 1.6 h
  Vd: 1.5 L/kg
[10]; 1 mg/kg QD oral
  % Cured: 0%
  Mean day of Relapse: 19.5 days post infection
  Mice Cured/Total: 0/6
[10]; 1.5 mg/kg BID oral
  % Cured: 16.7%
  Mean day of Relapse: 21 days post infection
  Mice Cured/Total: 1/6
[10]; 3 mg/kg QD oral
  % Cured: 50%
  Mean day of Relapse: 21 days post infection
  Mice Cured/Total: 3/6
[10]; 10 mg/kg QD oral
  % Cured: 100%
  Mean day of Relapse: >31 days post infection
  Mice Cured/Total: 6/6
[10]
  Minimum efficacious dose: 10 mg/kg
